# Target: Concanavalin A (Con A) (Canavalia ensiformis, UniProt P02866)
# Type: biochemical, jack bean (Canavalia ensiformis)
# Details: 1000 equiv. added after 180 min
structure (smiles),measurement,value
COC1OC(CO)C(O)C(O)C1O [methyl-α-D-mannose],effect of competitive inhibitor on Con A-complex aggregates,immediate deaggregation

# — paper PMC9890585 (Chemical Science, 2022)
